#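 Each compound was tested at five concentrations against cells in 96-well plates for 48 hours. GI50 marks 50% less growth. TGI marks complete inhibition of growth.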
# Experiments:
# Assay in all cases: growth of human tumour cells (NCI), 48 h
# COLO 205 colon = tested on: COLO 205 colon
# HCT-116 colon = tested on: HCT-116 colon
# IGROV1 ovarian = tested on: IGROV1 ovarian
# LOX IMVI melanoma = tested on: LOX IMVI melanoma
# NCI-H226 lung = tested on: NCI-H226 lung
# OVCAR-5 ovarian = tested on: OVCAR-5 ovarian
# RPMI-8226 leukemia = tested on: RPMI-8226 leukemia
# SK-MEL-2 melanoma = tested on: SK-MEL-2 melanoma
# MCF7 breast = tested on: MCF7 breast
# T-47D breast = tested on: T-47D breast
SMILES,TGI (COLO 205 colon),TGI (HCT-116 colon),TGI (IGROV1 ovarian),TGI (LOX IMVI melanoma),TGI (NCI-H226 lung),TGI (OVCAR-5 ovarian),TGI (RPMI-8226 leukemia),TGI (SK-MEL-2 melanoma),GI50 (COLO 205 colon),GI50 (HCT-116 colon),GI50 (IGROV1 ovarian),GI50 (LOX IMVI melanoma),GI50 (MCF7 breast),TGI (MCF7 breast),GI50 (NCI-H226 lung),GI50 (OVCAR-5 ovarian),GI50 (SK-MEL-2 melanoma),GI50 (T-47D breast),TGI (T-47D breast),GI50 (RPMI-8226 leukemia)
CC(=O)O[C@@H]1CC(C)C2CC2C2=C(C(O)OC2O)[C@@H]1C(C)CCC=C(C)C (some centres not stated),32.5 µM,32.7 µM,51.1 µM,40.9 µM,36.5 µM,35.1 µM,59.1 µM,> 100 µM,–,–,–,–,–,–,–,–,–,–,–,–
O=Cc1[nH]c2ccccc2c1Br,34.7 µM,38.1 µM,70.2 µM,75.7 µM,> 100 µM,> 100 µM,–,31.2 µM,–,–,–,–,–,–,–,–,–,–,–,–
Cc1cc2c(c(C#N)c1C)NC(=O)C(CC(=O)O)C2=O (configuration not stated),> 100 µM,> 100 µM,> 100 µM,> 100 µM,> 100 µM,> 100 µM,> 100 µM,> 100 µM,–,–,–,–,–,–,–,–,–,–,–,–
O=C(c1cc(-c2cc3c(cc2C(=O)N2Cc4ccccc4C[C@H]2CN2CCOCC2)OCO3)n2c1CCCC2)N(c1ccccc1)c1ccc(O)cc1,> 100 µM,> 100 µM,> 100 µM,> 100 µM,56 µM,> 100 µM,–,54.4 µM,6.71 µM,13.6 µM,5.97 µM,7.09 µM,3.52 µM,> 100 µM,10.1 µM,5.87 µM,10.2 µM,4.95 µM,> 100 µM,–
CCCCC(=O)[O-].N.N.N.N.N.[Co+3].[O-][Cl+3]([O-])([O-])[O-],> 100 µM,> 100 µM,> 100 µM,> 100 µM,–,> 100 µM,> 100 µM,> 100 µM,> 100 µM,> 100 µM,> 100 µM,> 100 µM,–,–,–,> 100 µM,> 100 µM,–,–,> 100 µM
Cc1ccc(C2=Nc3ccccc3NC(=O)C2)cc1,> 100 µM,> 100 µM,> 100 µM,> 100 µM,> 100 µM,> 100 µM,–,> 100 µM,–,–,–,–,–,–,–,–,–,–,–,–
CCOC(=O)[C@@H](C)C[C@H](Cc1ccccc1)NC(=O)c1csc([C@@H](C[C@H](C(C)C)N(C)C(=O)[C@H](CCC(C)C)NC(=O)[C@H]2CCCCN2C)OC(C)=O)n1,0.0352 µM,8.17 µM,29.8 µM,4.85 µM,11.6 µM,10.3 µM,3.83 µM,6.65 µM,0.00439 µM,0.00424 µM,0.00335 µM,0.0133 µM,< 0.00333 µM,6.3 µM,0.0495 µM,0.0115 µM,< 0.00333 µM,–,–,< 0.00333 µM
COc1ccc(C=NC23CC4CC(CC(C4)C2)C3)cc1,> 10 µM,> 100 µM,> 100 µM,> 100 µM,> 100 µM,> 100 µM,> 100 µM,> 100 µM,–,–,–,–,–,–,–,–,–,–,–,–
COc1ccc2nc(NC(=O)C(=O)CC(=O)c3ccc(Cl)cc3)sc2c1,> 100 µM,> 100 µM,> 100 µM,–,> 100 µM,–,–,> 100 µM,–,–,–,–,–,–,–,–,–,–,–,–
C=CCN=C1N=C(CC(=O)OCC)CS1,> 100 µM,> 100 µM,> 100 µM,> 100 µM,> 100 µM,> 100 µM,–,> 100 µM,–,–,–,–,–,–,–,–,–,–,–,–
CC(=S)NNC(=O)c1ccncc1,> 100 µM,> 100 µM,> 100 µM,> 100 µM,> 100 µM,> 100 µM,–,> 100 µM,–,–,–,–,–,–,–,–,–,–,–,–
CN(C)CCCn1c2c3ccccc3ccc2c2oc(=O)c3ccccc3c21,5.87 µM,5.05 µM,23.5 µM,13.3 µM,> 51.8 µM,55.5 µM,14 µM,21.1 µM,–,–,–,–,–,–,–,–,–,–,> 100 µM,–
O=C(O)c1ccc([N+](=O)[O-])c2c(=O)c3ccccc3[nH]c12,> 100 µM,> 100 µM,> 100 µM,> 100 µM,–,> 100 µM,> 100 µM,> 100 µM,–,–,–,–,–,–,–,–,–,–,–,–
CC(C)(C)C(=O)C(c1ccc(-c2cscn2)cc1)c1ccc(-c2cscn2)cc1,> 100 µM,> 100 µM,> 100 µM,> 100 µM,> 78.7 µM,> 100 µM,> 100 µM,68.5 µM,–,–,–,–,–,–,–,–,–,–,–,–
NC(=NC1CCCCCC1)c1ccc(N2CCN(c3ccc(C(N)=NC4CCCCCC4)cc3)CC2)cc1,> 50 µM,48.8 µM,–,20.3 µM,28.9 µM,> 50 µM,–,18.1 µM,14.7 µM,10.2 µM,–,3.05 µM,–,–,7.64 µM,25.4 µM,7.65 µM,15.2 µM,> 50 µM,–
CNS(=O)(=O)NN(C)S(=O)(=O)c1ccc(Br)cc1,> 100 µM,> 100 µM,> 100 µM,> 100 µM,> 100 µM,–,> 100 µM,> 100 µM,–,–,–,–,–,–,–,–,–,–,–,–

SMILES,TGI (COLO 205 colon),TGI (HCT-116 colon),TGI (IGROV1 ovarian),TGI (LOX IMVI melanoma),TGI (NCI-H226 lung),TGI (OVCAR-5 ovarian),TGI (RPMI-8226 leukemia),TGI (SK-MEL-2 melanoma),GI50 (COLO 205 colon),GI50 (HCT-116 colon),GI50 (IGROV1 ovarian),GI50 (LOX IMVI melanoma),GI50 (MCF7 breast),TGI (MCF7 breast),GI50 (NCI-H226 lung),GI50 (OVCAR-5 ovarian),GI50 (SK-MEL-2 melanoma),GI50 (T-47D breast),TGI (T-47D breast),GI50 (RPMI-8226 leukemia)
COc1ccc(/C=C(\C#N)c2cc(OC)c3c(c2)OCO3)cc1,0.0521 µM,4.39 µM,32 µM,> 100 µM,2.56 µM,80.9 µM,27 µM,2.81 µM,< 0.0124 µM,< 0.0121 µM,0.0212 µM,0.0271 µM,< 0.0118 µM,19.8 µM,0.0249 µM,0.0797 µM,< 0.017 µM,–,–,0.019 µM
Cc1cc(N/N=C/c2nc(-c3ccccc3)oc2C)c2cc(Cl)ccc2n1,3.66 µM,3.39 µM,3.32 µM,–,6.88 µM,3.12 µM,–,38.7 µM,1.8 µM,1.82 µM,1.68 µM,–,1.64 µM,3.56 µM,2.38 µM,1.62 µM,18.7 µM,2.02 µM,4.22 µM,–
COc1ccc(/C=C2\CNC/C(=C\c3ccc(OC)cc3)C2=O)cc1,> 100 µM,13 µM,> 100 µM,21.1 µM,> 100 µM,> 100 µM,> 100 µM,> 100 µM,–,–,–,–,–,–,–,–,–,–,–,–
O=C1NC2(O)c3ccccc3C(=O)C2(O)N1c1ccccc1 (configuration not stated),> 100 µM,> 100 µM,> 100 µM,> 100 µM,–,> 100 µM,> 100 µM,> 100 µM,–,–,–,–,–,–,–,–,–,–,–,–
COc1cc2c(cc1OC)[C@@H](C(O)c1ccccc1)NCC2 (some centres not stated),> 100 µM,> 100 µM,> 100 µM,> 100 µM,> 100 µM,> 100 µM,–,> 100 µM,–,–,–,–,–,–,–,–,–,–,–,–
O[C@]12CCCC[C@H]1CCC2,> 100 µM,> 100 µM,> 100 µM,> 100 µM,–,> 100 µM,> 100 µM,> 100 µM,–,–,–,–,–,–,–,–,–,–,–,–
O=C(N/N=C/c1cc(Br)cc(Br)c1[O-])c1ccccc1O.O=C(N/N=C/c1cc(Br)cc(Br)c1[O-])c1ccccc1O.[Mn+2],13.2 µM,7.36 µM,22.7 µM,–,11 µM,16.4 µM,14.8 µM,22.3 µM,–,–,–,–,–,–,–,–,–,–,–,1.03 µM
CN(C)c1ccc(/C=C2\N=C(c3ccc(N)cc3)OC2=O)cc1,> 100 µM,–,> 100 µM,> 100 µM,> 100 µM,> 100 µM,> 100 µM,> 100 µM,–,–,–,–,–,–,–,–,–,–,–,–
Cc1nn2c(/C=C3/C(=O)Nc4ccccc43)c(-c3ccc(Cl)cc3)nc2s1,> 50 µM,–,> 50 µM,21.4 µM,27.5 µM,–,> 50 µM,> 50 µM,14.9 µM,–,39.1 µM,10.6 µM,17.1 µM,> 50 µM,10.1 µM,–,> 50 µM,–,–,4.37 µM
CCN(CC)C(=S)N/N=C(\C)c1ccccc1O,> 100 µM,–,> 100 µM,77.4 µM,56.8 µM,–,> 100 µM,80.7 µM,–,–,–,–,–,–,–,–,–,–,–,–
COc1ccc(C(=O)/C=C/c2cc(C(=O)c3cc(OC)c(OC)c(OC)c3)ccc2OC)cc1,–,–,> 100 µM,–,> 100 µM,–,–,> 100 µM,–,–,8.82 µM,–,3.05 µM,> 100 µM,4.34 µM,–,6.04 µM,–,–,–
COC1=C(C(=O)OC(C)(C)C)[C@]2(C)C(C(=O)OC(C)(C)C)C(OC)=C(C(=O)OC(C)(C)C)[C@]2(C)C1C(=O)OC(C)(C)C (some centres not stated),> 100 µM,> 100 µM,> 100 µM,> 100 µM,> 100 µM,> 100 µM,> 100 µM,> 100 µM,–,–,–,–,–,–,–,–,–,–,–,–
Cc1c(C(=O)CC(=O)C(=O)Nc2cccc(C(F)(F)F)c2)[n+](=O)c2ccccc2n1[O-],13.4 µM,10.2 µM,9.34 µM,12.7 µM,80.8 µM,19.5 µM,11.7 µM,18.5 µM,–,–,–,–,–,–,–,–,–,–,–,–
Clc1cc(Cl)cc(N2N=C(c3cccc(Nc4ccncc4)c3)CC2c2ccc(Br)cc2)c1 (configuration not stated),3.86 µM,–,3.3 µM,3.06 µM,–,2.92 µM,–,–,1.82 µM,–,1.74 µM,1.7 µM,–,–,–,1.55 µM,–,–,–,–
Cc1cccc(C)c1NC(=O)C(=O)CC(=O)CO,> 100 µM,> 100 µM,> 100 µM,> 100 µM,> 100 µM,> 100 µM,> 100 µM,> 100 µM,–,–,–,–,–,–,–,–,–,–,–,–
COC1CC(OS(=O)(=O)c2ccc(C)cc2)C(OS(=O)(=O)c2ccc(C)cc2)C(COS(=O)(=O)c2ccc(C)cc2)O1 (configuration not stated),> 100 µM,> 100 µM,17.2 µM,–,10.4 µM,51.5 µM,86 µM,20.1 µM,–,–,–,–,–,–,–,–,–,–,–,–
